The source of these data is patent US9850271B2, “Crystalline solvate forms of a pharmaceutical” (NeurMedix, Inc., priority 2008, dated 2017).

This data set is described as follows: Brief thermal stress of amorphous solid (physical stability). It is filed as physicochemical. To be noted: brief thermal stress at 40° C.

In the case of `C#C[C@]1(O)CC[C@H]2[C@@H]3[C@@H](O)C=C4C[C@@H](O)CC[C@]4(C)[C@H]3CC[C@@]21C` [amorphous Compound 1, 17α-ethynyl-androst-5-ene-3β,7β,17β-triol], the “solid state form after brief thermal stress” value is listed as “resulted in crystalline material that contains Form I”.
